Assays:
[1] = Test for solubility in solvent; format: physicochemical
Procedure: Each of cyanine dyes as shown below in Table 2 was dissolved in methanol and the solubility was determined at room temperature with the results indicated below in Table 2.

[2] = Absorption maximum and molar absorptivity in solution; format: physicochemical; set-up: ε: unit not given here

In the case of CCOc1ccc2c(c1)C(C)(C)C(=CC=CC=CC=CC1=[N+](C)c3ccc(OCC)cc3C1(C)C)N2C [Compound A], the “solubility in solvents (in words)” value [1] is reported as “does not exhibit good solubility”.

In the case of CCOc1ccc2c(c1)C(C)(C)C(=CC=CC=CC1=[N+](C)c3ccc(OCC)cc3C1(C)C)N2C [Compound B], the “solubility in solvents (in words)” value [1] is reported as “not satisfactory in solubility”.

With CCN1C(=CC=CC=CC2=[N+](CC)c3c(OC)cc(OC)cc3C2(C)C)C(C)(C)c2cc(OC)cc(OC)c21 [Preparation Example 1] the ε ([2]; alcohol) was 1.84×10^5 and the λmax ([2]; alcohol) was 693 nm.

In the case of CCOc1cc(OCC)c2c(c1)C(C)(C)C(=CC=CC=CC1=[N+](CC)c3c(OCC)cc(OCC)cc3C1(C)C)N2CC [Preparation Example 2], the ε ([2]; dichloromethane) is reported as 1.72×10^5.

With CCOc1cc(C)c2c(c1)C(C)(C)C(=CC=CC=CC1=[N+](CC)c3c(C)cc(OCC)cc3C1(C)C)N2CC [Preparation Example 7] the ε ([2]; dichloroethane) was 1.75×10^5.
